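Assay format: 96-well plates, 48-hour exposure. TGI denotes the concentration required for complete inhibition of growth.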
Tests used:
Assay in all cases: growth of human tumour cells (NCI), 48 h
786-0 renal = test system: 786-0 renal
A498 renal = test system: A498 renal
A549 NSCLC = test system: A549 NSCLC
ACHN renal = test system: ACHN renal
BT-549 breast = test system: BT-549 breast
CAKI-1 renal = test system: CAKI-1 renal
COLO 205 colon = test system: COLO 205 colon
DU-145 prostate = test system: DU-145 prostate
EKVX NSCLC = test system: EKVX NSCLC
HCT-116 colon = test system: HCT-116 colon
HCT-15 colon = test system: HCT-15 colon
HL-60(TB) leukemia = test system: HL-60(TB) leukemia
HOP-62 NSCLC = test system: HOP-62 NSCLC
HOP-92 NSCLC = test system: HOP-92 NSCLC
HS 578T breast = test system: HS 578T breast
HT29 colon = test system: HT29 colon
IGROV1 ovarian = test system: IGROV1 ovarian
K-562 leukemia = test system: K-562 leukemia
KM12 colon = test system: KM12 colon
LOX IMVI melanoma = test system: LOX IMVI melanoma
M14 melanoma = test system: M14 melanoma
MALME-3M melanoma = test system: MALME-3M melanoma
MCF7 breast = test system: MCF7 breast
MDA-MB-231 breast = test system: MDA-MB-231 breast
MDA-MB-435 = test system: MDA-MB-435
MDA-N = test system: MDA-N
MOLT-4 leukemia = test system: MOLT-4 leukemia
NCI-H23 lung = test system: NCI-H23 lung
NCI-H460 lung = test system: NCI-H460 lung
NCI-H522 lung = test system: NCI-H522 lung
NCI/ADR-RES ovarian = test system: NCI/ADR-RES ovarian
OVCAR-3 ovarian = test system: OVCAR-3 ovarian
OVCAR-4 ovarian = test system: OVCAR-4 ovarian
OVCAR-5 ovarian = test system: OVCAR-5 ovarian
OVCAR-8 ovarian = test system: OVCAR-8 ovarian
PC-3 prostate = test system: PC-3 prostate
RPMI-8226 leukemia = test system: RPMI-8226 leukemia
RXF 393 renal = test system: RXF 393 renal
SF-268 CNS = test system: SF-268 CNS
SF-295 CNS = test system: SF-295 CNS
SF-539 CNS = test system: SF-539 CNS
SK-MEL-2 melanoma = test system: SK-MEL-2 melanoma
SK-MEL-28 melanoma = test system: SK-MEL-28 melanoma
SK-MEL-5 melanoma = test system: SK-MEL-5 melanoma
SK-OV-3 ovarian = test system: SK-OV-3 ovarian
SN12C renal = test system: SN12C renal
SNB-19 CNS = test system: SNB-19 CNS
SNB-75 CNS = test system: SNB-75 CNS
SR leukemia = test system: SR leukemia
SW-620 colon = test system: SW-620 colon
T-47D breast = test system: T-47D breast
TK-10 renal = test system: TK-10 renal
U251 CNS = test system: U251 CNS
UACC-257 melanoma = test system: UACC-257 melanoma
UACC-62 melanoma = test system: UACC-62 melanoma
UO-31 renal = test system: UO-31 renal
CCRF-CEM leukemia = test system: CCRF-CEM leukemia
HCC-2998 colon = test system: HCC-2998 colon

Measured: TGI

COc1c(O)cc2c(c1O)C(=O)C(Cc1ccc(O)cc1)CO2 (stereo not drawn)
76.8 µM: MDA-MB-435
91.9 µM: SNB-75 CNS
not listed: CCRF-CEM leukemia | HCC-2998 colon
> 100 µM: all other assays above

Nc1ccc2nc3n(c2c1)C(c1c(F)cccc1F)SC3 (stereo not drawn)
not listed: HOP-92 NSCLC
> 100 µM: all other assays above

Source: PubChem BioAssay (NCI)
